According to ChEMBL document CHEMBL1201862, “PubChem BioAssay data set” (2004):
Blank lines part the entries; values can stand above or below the molecule they belong to. The source made the active and inactive calls.

How the values were obtained:
Format in all cases: functional
[1] = target: Protein kinase C theta type (Homo sapiens, UniProt Q04759); assay: Navigating the Kinome. Panel member name: PRKCQ
[2] = target: Dual specificity protein kinase CLK2 (Homo sapiens, UniProt P49760)
[3] = target: Dual specificity mitogen-activated protein kinase kinase 1 (Homo sapiens, UniProt Q02750); assay: Navigating the Kinome. Panel member name: MAP2K1
[4] = target: Serine/threonine-protein kinase TBK1 (Homo sapiens, UniProt Q9UHD2); assay: Navigating the Kinome. Panel member name: TBK1
[5] = target: 5'-AMP-activated protein kinase catalytic subunit alpha-1 (Homo sapiens, UniProt Q13131)
[6] = target: ALK tyrosine kinase receptor (Homo sapiens, UniProt Q9UM73);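 further: ALK tested as one member of a kinase panel screen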
[7] = target: Proto-oncogene tyrosine-protein kinase receptor Ret (Homo sapiens, UniProt P07949);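 further: measured within a kinome-wide profiling panel, RET as the panel member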
[8] = target: Tyrosine-protein kinase receptor TYRO3 (Homo sapiens, UniProt Q06418);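 further: TYRO3 value obtained as one member of a kinome-wide profiling panel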
Tyrosine-protein kinase receptor TYRO3, sequence (Q06418 whole entry): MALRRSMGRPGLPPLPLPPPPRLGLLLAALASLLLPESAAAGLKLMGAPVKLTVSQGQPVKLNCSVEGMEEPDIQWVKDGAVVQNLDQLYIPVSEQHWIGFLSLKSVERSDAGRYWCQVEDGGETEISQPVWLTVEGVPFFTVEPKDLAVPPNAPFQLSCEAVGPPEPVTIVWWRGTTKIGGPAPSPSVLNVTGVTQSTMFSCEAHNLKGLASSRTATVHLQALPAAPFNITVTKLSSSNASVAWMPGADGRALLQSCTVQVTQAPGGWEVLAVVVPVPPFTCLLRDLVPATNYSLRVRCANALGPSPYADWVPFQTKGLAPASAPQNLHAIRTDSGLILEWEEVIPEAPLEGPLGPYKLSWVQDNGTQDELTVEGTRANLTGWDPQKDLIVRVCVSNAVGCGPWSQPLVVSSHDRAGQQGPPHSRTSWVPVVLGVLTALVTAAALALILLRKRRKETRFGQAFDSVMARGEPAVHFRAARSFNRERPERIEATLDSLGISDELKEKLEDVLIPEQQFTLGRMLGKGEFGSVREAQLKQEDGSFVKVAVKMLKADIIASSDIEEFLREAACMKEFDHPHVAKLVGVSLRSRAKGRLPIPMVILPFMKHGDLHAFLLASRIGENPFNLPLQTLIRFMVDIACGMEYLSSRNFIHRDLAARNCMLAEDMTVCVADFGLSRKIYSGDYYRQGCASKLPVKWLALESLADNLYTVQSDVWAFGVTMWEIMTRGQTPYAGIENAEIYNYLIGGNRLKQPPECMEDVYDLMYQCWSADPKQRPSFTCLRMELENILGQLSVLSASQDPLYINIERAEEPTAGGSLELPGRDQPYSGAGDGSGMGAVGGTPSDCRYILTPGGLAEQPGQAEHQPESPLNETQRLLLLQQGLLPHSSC

[9] = target: Serine/threonine-protein kinase D3 (Homo sapiens, UniProt O94806);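 further: determined within a kinase panel screen, with PRKCN as the panel member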
[10] = target: Death-associated protein kinase 3 (Homo sapiens, UniProt O43293);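 further: measured as one member of a kinome-wide profiling panel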
Death-associated protein kinase 3, sequence (O43293 whole entry): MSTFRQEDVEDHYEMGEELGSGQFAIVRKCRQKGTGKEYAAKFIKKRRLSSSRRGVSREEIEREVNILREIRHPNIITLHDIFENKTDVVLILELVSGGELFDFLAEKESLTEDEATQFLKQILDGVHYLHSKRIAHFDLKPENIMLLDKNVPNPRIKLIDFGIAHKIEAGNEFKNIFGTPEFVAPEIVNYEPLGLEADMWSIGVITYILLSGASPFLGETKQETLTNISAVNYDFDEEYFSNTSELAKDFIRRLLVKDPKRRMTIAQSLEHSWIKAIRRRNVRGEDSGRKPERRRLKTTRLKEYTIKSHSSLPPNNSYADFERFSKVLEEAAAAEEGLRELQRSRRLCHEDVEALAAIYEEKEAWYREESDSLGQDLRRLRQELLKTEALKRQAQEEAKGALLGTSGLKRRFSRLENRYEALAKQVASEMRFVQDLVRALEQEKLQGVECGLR

[11] = target: Activin receptor type-1 (Homo sapiens, UniProt Q04771); assay: Navigating the Kinome. Panel member name: ACVR1
[12] = target: Mitogen-activated protein kinase 8 (Homo sapiens, UniProt P45983);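 further: value comes from one member of a kinome-wide kinase profiling panel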
[13] = target: Serine/threonine-protein kinase pim-1 (Homo sapiens, UniProt P11309)
[14] = target: Aurora kinase A (Homo sapiens, UniProt O14965);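 further: value from the Navigating the Kinome kinase panel profiling, panel entry STK6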
[15] = target: Tyrosine-protein kinase BTK (Homo sapiens, UniProt Q06187)
[16] = target: Serine/threonine-protein kinase PAK 4 (Homo sapiens, UniProt O96013);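 further: value obtained within a kinome profiling panel in which PAK4 was one of the panel members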
[17] = target: Fibroblast growth factor receptor 1 (Homo sapiens, UniProt P11362)
[18] = target: Casein kinase I isoform alpha (Homo sapiens, UniProt P48729)
[19] = target: LIM domain kinase 1 (Homo sapiens, UniProt P53667); assay: Navigating the Kinome. Panel member name: LIMK1
[20] = target: High affinity nerve growth factor receptor (Homo sapiens, UniProt P04629);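 further: NTRK1 tested as one member of a kinome-wide profiling panel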
[21] = target: Glycogen synthase kinase-3 alpha (Homo sapiens, UniProt P49840);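 further: GSK3A result taken from a broad kinome-wide kinase panel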
[22] = target: Mitogen-activated protein kinase kinase kinase kinase 2 (Homo sapiens, UniProt Q12851);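 further: measured as one member of a kinome-wide kinase panel, with MAP4K2 as the panel entry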
[23] = target: Hepatocyte growth factor receptor (Homo sapiens, UniProt P08581);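 further: kinase panel profiling across the kinome, with MET as the panel member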
[24] = target: Activated CDC42 kinase 1 (Homo sapiens, UniProt Q07912); assay: Navigating the Kinome. Panel member name: ACK1
[25] = target: Receptor-type tyrosine-protein kinase FLT3 (Homo sapiens, UniProt P36888);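 further: FLT3 was tested as one member of a kinome-wide kinase panel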
[26] = target: Serine/threonine-protein kinase Chk1 (Homo sapiens, UniProt O14757);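 further: measured as one member of a kinome-wide kinase profiling panel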
[27] = target: Tyrosine-protein kinase ABL1 (Homo sapiens, UniProt P00519)
[28] = target: Cyclin-dependent kinase 5 (Homo sapiens, UniProt Q00535);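 further: CDK5 measured as one member of a kinase profiling panel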
[29] = target: Insulin-like growth factor 1 receptor (Homo sapiens, UniProt P08069); assay: Navigating the Kinome. Panel member name: IGF1R
[30] = target: Dual specificity tyrosine-phosphorylation-regulated kinase 1B (Homo sapiens, UniProt Q9Y463); assay: Navigating the Kinome. Panel member name: DYRK1B
[31] = target: cAMP-dependent protein kinase catalytic subunit PRKX (Homo sapiens, UniProt P51817)
[32] = target: Platelet-derived growth factor receptor alpha (Homo sapiens, UniProt P16234); assay: Navigating the Kinome. Panel member name: PDGFRA
[33] = target: Leucine-rich repeat serine/threonine-protein kinase 2 (Homo sapiens, UniProt Q5S007);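 further: value from a broad kinome-wide panel profiling study in which LRRK2 was one of the kinases tested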
[34] = target: Aurora kinase B (Homo sapiens, UniProt Q96GD4)
[35] = target: Rho-associated protein kinase 1 (Homo sapiens, UniProt Q13464);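 further: measured within a broad kinome-wide panel profiling many kinases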
[36] = target: Tyrosine-protein kinase Fyn (Homo sapiens, UniProt P06241)
[37] = target: Serine/threonine-protein kinase Nek2 (Homo sapiens, UniProt P51955)
[38] = target: Cyclin-dependent kinase 8 (Homo sapiens, UniProt P49336); assay: Navigating the Kinome. Panel member name: CDK8
[39] = target: Cyclin-dependent kinase 7 (Homo sapiens, UniProt P50613);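 further: value comes from a kinome-wide kinase profiling panel in which CDK7 is one member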
[40] = target: Vascular endothelial growth factor receptor 1 (Homo sapiens, UniProt P17948);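 further: measured within a kinome-wide profiling panel, FLT1 as the panel member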
Vascular endothelial growth factor receptor 1, sequence (P17948 whole entry): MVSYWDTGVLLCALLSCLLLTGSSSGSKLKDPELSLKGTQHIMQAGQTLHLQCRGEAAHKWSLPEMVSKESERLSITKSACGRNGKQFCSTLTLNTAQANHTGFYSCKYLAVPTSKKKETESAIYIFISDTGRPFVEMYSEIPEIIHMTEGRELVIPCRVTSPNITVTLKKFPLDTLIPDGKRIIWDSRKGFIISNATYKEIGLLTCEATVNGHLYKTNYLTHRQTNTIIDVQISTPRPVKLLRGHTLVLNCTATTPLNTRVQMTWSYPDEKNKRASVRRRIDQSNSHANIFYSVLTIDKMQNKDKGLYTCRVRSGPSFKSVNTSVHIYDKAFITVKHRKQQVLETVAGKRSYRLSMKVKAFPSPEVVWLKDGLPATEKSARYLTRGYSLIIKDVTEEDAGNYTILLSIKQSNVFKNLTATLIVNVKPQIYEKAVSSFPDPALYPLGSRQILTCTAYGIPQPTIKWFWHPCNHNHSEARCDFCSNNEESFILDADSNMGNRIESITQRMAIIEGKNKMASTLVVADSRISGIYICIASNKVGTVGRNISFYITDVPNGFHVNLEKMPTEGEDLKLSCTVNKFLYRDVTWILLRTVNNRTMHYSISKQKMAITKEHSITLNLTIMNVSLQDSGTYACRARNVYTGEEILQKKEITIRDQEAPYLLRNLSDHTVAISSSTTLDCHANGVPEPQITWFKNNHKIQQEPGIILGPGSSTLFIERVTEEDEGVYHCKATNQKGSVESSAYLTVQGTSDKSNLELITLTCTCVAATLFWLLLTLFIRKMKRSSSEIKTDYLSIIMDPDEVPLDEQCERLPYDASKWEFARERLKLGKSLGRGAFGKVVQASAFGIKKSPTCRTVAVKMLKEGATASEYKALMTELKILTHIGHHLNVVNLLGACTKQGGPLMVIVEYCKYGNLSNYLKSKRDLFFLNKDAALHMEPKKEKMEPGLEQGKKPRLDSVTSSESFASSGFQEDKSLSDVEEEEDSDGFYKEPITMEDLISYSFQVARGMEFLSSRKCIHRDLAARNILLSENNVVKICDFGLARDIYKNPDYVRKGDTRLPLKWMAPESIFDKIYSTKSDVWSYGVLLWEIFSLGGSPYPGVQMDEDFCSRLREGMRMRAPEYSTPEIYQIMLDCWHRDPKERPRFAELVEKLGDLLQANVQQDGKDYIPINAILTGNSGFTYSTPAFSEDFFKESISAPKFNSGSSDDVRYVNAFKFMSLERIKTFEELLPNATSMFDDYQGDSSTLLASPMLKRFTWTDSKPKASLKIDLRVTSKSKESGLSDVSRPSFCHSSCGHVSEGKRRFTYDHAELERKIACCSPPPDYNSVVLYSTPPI

[41] = target: Glycogen synthase kinase-3 beta (Homo sapiens, UniProt P49841);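 further: value comes from a broad kinome profiling panel, with GSK3B as the panel member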
[42] = target: Cyclin-dependent kinase 9 (Homo sapiens, UniProt P50750);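 further: value from the CDK9 entry of a kinome-spanning kinase panel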
[43] = target: BDNF/NT-3 growth factors receptor (Homo sapiens, UniProt Q16620);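 further: NTRK2 measured as one member of a broad kinome-wide kinase profiling panel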
[44] = target: cAMP-dependent protein kinase catalytic subunit alpha (Homo sapiens, UniProt P17612)
[45] = target: Dual specificity protein kinase CLK4 (Homo sapiens, UniProt Q9HAZ1)
[46] = target: Mitogen-activated protein kinase kinase kinase kinase 4 (Homo sapiens, UniProt O95819)
[47] = target: Macrophage-stimulating protein receptor (Homo sapiens, UniProt Q04912); assay: Navigating the Kinome. Panel member name: MST1R
[48] = target: Macrophage colony-stimulating factor 1 receptor (Homo sapiens, UniProt P07333);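 further: value comes from the Navigating the Kinome screening panel, CSF1R member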
Macrophage colony-stimulating factor 1 receptor, sequence (P07333 whole entry): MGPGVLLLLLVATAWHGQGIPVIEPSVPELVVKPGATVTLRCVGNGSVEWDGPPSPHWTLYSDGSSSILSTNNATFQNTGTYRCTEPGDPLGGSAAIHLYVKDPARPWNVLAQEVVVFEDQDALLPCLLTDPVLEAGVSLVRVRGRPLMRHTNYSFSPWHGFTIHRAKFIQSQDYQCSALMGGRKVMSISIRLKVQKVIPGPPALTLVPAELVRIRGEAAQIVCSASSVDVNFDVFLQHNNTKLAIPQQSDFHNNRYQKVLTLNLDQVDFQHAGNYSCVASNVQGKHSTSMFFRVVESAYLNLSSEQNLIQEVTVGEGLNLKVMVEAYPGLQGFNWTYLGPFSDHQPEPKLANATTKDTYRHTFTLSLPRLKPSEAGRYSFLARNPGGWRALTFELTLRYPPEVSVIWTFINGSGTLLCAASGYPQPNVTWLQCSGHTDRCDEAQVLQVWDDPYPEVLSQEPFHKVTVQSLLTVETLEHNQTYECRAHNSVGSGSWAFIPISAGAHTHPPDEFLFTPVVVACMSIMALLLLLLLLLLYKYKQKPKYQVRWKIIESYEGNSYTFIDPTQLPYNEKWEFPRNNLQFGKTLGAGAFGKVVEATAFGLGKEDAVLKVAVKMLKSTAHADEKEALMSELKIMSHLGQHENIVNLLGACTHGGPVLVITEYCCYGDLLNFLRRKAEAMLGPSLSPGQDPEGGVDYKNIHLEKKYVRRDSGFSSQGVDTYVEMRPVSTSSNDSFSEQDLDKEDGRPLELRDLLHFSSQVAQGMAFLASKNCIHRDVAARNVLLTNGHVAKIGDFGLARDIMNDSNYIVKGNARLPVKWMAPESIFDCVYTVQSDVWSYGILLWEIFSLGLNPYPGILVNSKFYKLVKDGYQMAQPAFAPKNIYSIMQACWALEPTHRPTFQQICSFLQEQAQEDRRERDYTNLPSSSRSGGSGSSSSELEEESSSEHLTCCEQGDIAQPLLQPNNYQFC

[49] = target: Dual specificity tyrosine-phosphorylation-regulated kinase 1A (Homo sapiens, UniProt Q13627);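 further: measured against DYRK1A as one member of a broad kinome profiling panel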
[50] = target: Inhibitor of nuclear factor kappa-B kinase subunit epsilon (Homo sapiens, UniProt Q14164); assay: Navigating the Kinome. Panel member name: IKBKE
[51] = target: Calcium/calmodulin-dependent protein kinase type II subunit alpha (Homo sapiens, UniProt Q9UQM7); assay: Navigating the Kinome. Panel member name: CAMK2A
Calcium/calmodulin-dependent protein kinase type II subunit alpha, sequence (Q9UQM7 whole entry): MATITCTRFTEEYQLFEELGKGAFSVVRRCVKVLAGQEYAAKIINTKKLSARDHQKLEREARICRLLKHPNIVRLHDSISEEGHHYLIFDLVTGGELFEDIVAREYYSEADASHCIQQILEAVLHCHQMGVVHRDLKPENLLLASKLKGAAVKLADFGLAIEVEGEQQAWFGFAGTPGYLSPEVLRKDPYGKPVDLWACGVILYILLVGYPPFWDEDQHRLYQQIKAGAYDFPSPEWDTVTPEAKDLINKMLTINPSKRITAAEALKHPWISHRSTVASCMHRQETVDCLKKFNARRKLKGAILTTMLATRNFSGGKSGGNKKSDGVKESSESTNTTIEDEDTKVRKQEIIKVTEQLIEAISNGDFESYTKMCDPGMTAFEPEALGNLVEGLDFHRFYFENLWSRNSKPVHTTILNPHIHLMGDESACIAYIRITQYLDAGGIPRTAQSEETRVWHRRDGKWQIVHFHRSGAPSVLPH

[52] = target: Leukocyte tyrosine kinase receptor (Homo sapiens, UniProt P29376); assay: Navigating the Kinome. Panel member name: LTK
Leukocyte tyrosine kinase receptor, sequence (P29376 whole entry): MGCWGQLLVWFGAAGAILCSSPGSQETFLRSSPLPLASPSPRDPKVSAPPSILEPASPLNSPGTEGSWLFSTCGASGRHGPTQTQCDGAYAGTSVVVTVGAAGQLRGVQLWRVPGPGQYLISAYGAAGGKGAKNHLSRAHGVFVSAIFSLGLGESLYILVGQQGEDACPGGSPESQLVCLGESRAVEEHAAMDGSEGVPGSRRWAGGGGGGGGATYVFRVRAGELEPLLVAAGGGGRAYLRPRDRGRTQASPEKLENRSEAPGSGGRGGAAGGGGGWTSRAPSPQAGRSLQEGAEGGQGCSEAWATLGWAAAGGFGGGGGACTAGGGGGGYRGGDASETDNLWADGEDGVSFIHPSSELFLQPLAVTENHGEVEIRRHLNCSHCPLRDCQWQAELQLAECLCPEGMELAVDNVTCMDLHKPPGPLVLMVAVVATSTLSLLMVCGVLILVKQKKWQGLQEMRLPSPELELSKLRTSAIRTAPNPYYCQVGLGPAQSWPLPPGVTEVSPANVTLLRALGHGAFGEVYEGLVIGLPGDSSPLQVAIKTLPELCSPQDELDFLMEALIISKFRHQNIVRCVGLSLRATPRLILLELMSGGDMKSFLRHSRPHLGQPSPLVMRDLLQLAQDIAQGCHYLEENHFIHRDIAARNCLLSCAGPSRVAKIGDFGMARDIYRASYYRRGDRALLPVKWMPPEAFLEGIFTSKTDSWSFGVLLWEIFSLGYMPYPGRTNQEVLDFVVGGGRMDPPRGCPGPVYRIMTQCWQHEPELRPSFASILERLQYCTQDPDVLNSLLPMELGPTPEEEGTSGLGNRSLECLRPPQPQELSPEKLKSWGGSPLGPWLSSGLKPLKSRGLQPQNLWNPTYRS

[53] = target: Tyrosine-protein kinase JAK2 (Homo sapiens, UniProt O60674);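 further: JAK2 tested as one member of a kinase panel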
[54] = target: Serine/threonine-protein kinase 17A (Homo sapiens, UniProt Q9UEE5)
[55] = target: Mast/stem cell growth factor receptor Kit (Homo sapiens, UniProt P10721);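 further: KIT entry within a kinase panel assay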
[56] = target: Casein kinase II subunit alpha (Homo sapiens, UniProt P68400)
[57] = target: Tyrosine-protein kinase JAK3 (Homo sapiens, UniProt P52333)
[58] = target: Tyrosine-protein kinase Blk (Homo sapiens, UniProt P51451);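 further: obtained as one member of a kinome-wide kinase assay panel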
[59] = target: Homeodomain-interacting protein kinase 2 (Homo sapiens, UniProt Q9H2X6);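 further: measured within a kinome-wide kinase profiling panel, HIPK2 being one panel member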
[60] = target: Protein kinase C gamma type (Homo sapiens, UniProt P05129)
[61] = target: Vascular endothelial growth factor receptor 2 (Homo sapiens, UniProt P35968)
[62] = target: G protein-coupled receptor kinase 5 (Homo sapiens, UniProt P34947); assay: Navigating the Kinome. Panel member name: GPRK5
[63] = target: Vascular endothelial growth factor receptor 3 (Homo sapiens, UniProt P35916);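 further: value from a kinome-wide profiling panel, with FLT4 as the panel member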
[64] = target: Homeodomain-interacting protein kinase 4 (Homo sapiens, UniProt Q8NE63)
[65] = target: Fibroblast growth factor receptor 3 (Homo sapiens, UniProt P22607)
[66] = target: Tyrosine-protein kinase receptor UFO (Homo sapiens, UniProt P30530)

Ki [1]: 20 µM (active) | Ki [2]: 50.1 µM (active) | Ki [3]: 79.4 µM (active) | Ki [4]: 7.94 µM (active) | Ki [5]: 15.8 µM (active) | Ki [6]: 31.6 µM (active) | Ki [7]: 12.6 µM (active) | Ki [8]: 7.94 µM (active) | Ki [9]: 10 µM (active) | Ki [11]: 15.8 µM (active) | Ki [12]: 31.6 µM (active) | Ki [13]: 50.1 µM (active) | Ki [14]: 7.94 µM (active) | Ki [15]: 31.6 µM (active) | Ki [16]: 63.1 µM (active) | Ki [17]: 31.6 µM (active) | Ki [18]: 20 µM (active) | Ki [19]: 1.58 µM (active) | Ki [20]: 15.8 µM (active) | Ki [21]: 31.6 µM (active) | Ki [22]: 10 µM (active) | Ki [23]: 6.31 µM (active) | Ki [24]: 50.1 µM (active) | Ki [25]: 15.8 µM (active) | Ki [26]: 2.51 µM (active) | Ki [27]: 12.6 µM (active) | Ki [28]: 6.31 µM (active) | Ki [29]: 79.4 µM (active) | Ki [30]: 3.98 µM (active) | Ki [31]: 10 µM (active) | Ki [32]: 12.6 µM (active) | Ki [33]: 6.31 µM (active) | Ki [34]: 25.1 µM (active) | Ki [35]: 79.4 µM (active) | Ki [36]: 50.1 µM (active) | Ki [37]: 3.16 µM (active) | Ki [38]: 5.01 µM (active) | Ki [39]: 20 µM (active) | Ki [40]: 20 µM (active) | Ki [41]: 20 µM (active) | Ki [42]: 3.98 µM (active) | Ki [43]: 100 µM (active) | Ki [44]: 15.8 µM (active) | Ki [45]: 0.501 µM (active) | Ki [46]: 63.1 µM (active) | Ki [47]: 50.1 µM (active) | Ki [48]: 15.8 µM (active) | Ki [49]: 2 µM (active) | Ki [50]: 15.8 µM (active) | Ki [51]: 15.8 µM (active) | Ki [52]: 3.98 µM (active)
Compound: Nc1cc(=O)[nH]n1-c1ccccn1
Ki [10]: 20 µM (active)

Ki [53]: 0.02 µM (active) | Ki [8]: > 3.16 µM (inactive) | Ki [54]: > 3.16 µM (inactive) | Ki [55]: 0.158 µM (active) | Ki [56]: > 6.31 µM (inactive) | Ki [57]: 0.501 µM (active) | Ki [58]: 0.2 µM (active) | Ki [59]: 1.58 µM (active) | Ki [60]: 0.631 µM (active) | Ki [61]: 0.398 µM (active) | Ki [62]: 2.51 µM (active) | Ki [30]: > 2.51 µM (inactive) | Ki [32]: > 2.51 µM (inactive) | Ki [33]: 2.51 µM (active) | Ki [63]: 0.2 µM (active) | Ki [64]: > 7.94 µM (inactive) | Ki [38]: > 3.98 µM (inactive) | Ki [40]: 0.794 µM (active) | Ki [65]: 0.158 µM (active) | Ki [48]: 0.0398 µM (active) | Ki [51]: > 3.98 µM (inactive) | Ki [66]: 0.0398 µM (active) | Ki [52]: 0.00158 µM (active)
Compound: CN1CCN(c2ccc(C(=O)Nc3n[nH]c4ccc(Cc5cc(F)cc(F)c5)cc34)c(NC3CCOCC3)c2)CC1 [ENTRECTINIB]
Ki [10]: 2.51 µM (active)
